# Experimental data reported in US20110319384A1, “Pharmaceutical Compositions” (priority 2005, published 2011).
# Like-named read-outs stand apart in the source and are kept apart here.
# Assays:
# patients with GAD [1] = settings: hypothesis to be tested
# patients with GAD [2] = settings: hypothesis to be tested; remark: listed apart in the source
# patients with GAD [3] = system: patients with GAD
# [4] = system: elderly patients with MDD and CV damage
# [5] = system: patients with treatment-resistant depression; experiment: Example 32: 8-week double-blind randomized placebo-controlled study, quetiapine added to SSRI/SNRI
# Excerpt: Pregnant or lactating women, or those who were planning on becoming pregnant were not allowed to participate either. Participation in a clinical research study within 90 days of the start of this study also precluded applicants from participating. […] The primary efficacy endpoint for this study was HAM-D score at Week 8. Secondary endpoints included: (1) response (≧50% reduction in HAM-D score) and remission (HAM-D score <7) rates; (2) final Montgomery-Asberg Rating Scale score (MADRS); (3) CGI-S scores; and (4) CGI-I scores. Efficacy was assessed at baseline, then at Weeks 1, 2, 3, 4, 6, and 8. Adverse events (AEs) were also monitored.
# [6] = response rate vs placebo, Day 57
# [7] = hypothesis to be tested, compared to paroxetine
# [8] = hypothesis to be tested, vs placebo
# [9] = add-on to antidepressants, mean dose 300 mg/day
structure (smiles),measurement,setting,value
"OCCOCCN1CCN(C2=Nc3ccccc3Sc3ccccc32)CC1 [quetiapine, 11-[4-[2-(2-hydroxyethoxy)ethyl]-1-piperazinyl]-dibenzo[b,f][1,4]thiazepine]","Change from randomization in HAM-A total score, HAM-A psychic cluster, HAM-A somatic cluster and CGI-S score at Day 8","patients with GAD [1]; patients with GAD, Day 8",anti-anxiety effect by Day 8
same,Change from randomization in Q-les-Q total score and Q-les-Q Item 16 (Overall life satisfaction) at Day 57,"patients with GAD [1]; quality of life, vs placebo",Quetiapine is more effective
same,HAM-A Response (decrease from randomization total score of ≧50%) at Day 8,"patients with GAD [1]; response rate vs placebo, Day 8",Quetiapine has a greater
same,HAM-A Response (decrease from randomization total score of ≧50%) at Day 57,patients with GAD [1]; [6],Quetiapine has a greater
same,Adverse events of nausea or vomiting,patients with GAD [1]; vs placebo,placebo levels of nausea and
same,Adverse events related to EPS (including akathisia); change in SAS and BARS scores at Day 57,patients with GAD [1]; vs placebo,placebo levels of EPS
same,HAM-A Remission (HAM-A total score ≦7) at Day 57,"patients with GAD [1]; vs placebo, Day 57",Quetiapine is better than
same,"Change from randomization in CGI-S score, CGI-I (much or very much improved), HAM-A psychic cluster and HAMA somatic cluster at Day 57","patients with GAD [1]; vs placebo, across anxiety symptoms, Day 57",Quetiapine is more effective
same,Adverse events of nausea or vomiting,patients with GAD [2]; compared to escitalopram,lower levels of nausea and
same,Incidence of withdrawals due to adverse events,patients with GAD [2]; compared to escitalopram,Quetiapine has similar
same,Sexual dysfunction: change from randomization in CSFQ total score at Day 57,patients with GAD [2]; compared to escitalopram,lower levels of sexual
same,"Somnolence: severity of AEs, time of first instance, withdrawals due to AE of somnolence",patients with GAD [2]; compared to placebo,"generally mild, occurs early in"
same,"Change from randomization in HAM-A total score, HAM-A psychic cluster, HAM-A somatic cluster and CGI-S score at Day 4","patients with GAD [2]; compared to placebo, Day 4",anti-anxiety effect by Day 4
same,Change from randomization in MADRS total score at Day 57,"patients with GAD [2]; depressive symptoms in GAD, vs placebo",Quetiapine is more effective
same,Adverse events related to discontinuation; change in Discontinuation-Emergent Signs and Symptoms total score at Day 64 and Day 71,patients with GAD [2]; discontinuation symptoms,Quetiapine does not have
same,Change from normal to Clinically Important in Physical Examinations; Laboratory values; Vital signs; ECGs,patients with GAD [2]; once daily up to 300 mg/day,300 mg/day is safe and well
same,Change from randomization in Q-les-Q Item 15 (Satisfaction with medication) at Day 57,"patients with GAD [2]; patient satisfaction, vs placebo",Quetiapine is more effective
same,Change from randomization in Q-les-Q total score and Q-les-Q Item 16 (Overall life satisfaction) at Day 57,"patients with GAD [2]; quality of life, vs placebo",Quetiapine is more effective
same,HAM-A Response (decrease from randomization total score of = 50%) at Day 4,"patients with GAD [2]; response rate vs placebo, Day 4",Quetiapine has a greater
same,HAM-A Response (decrease from randomization total score of = 50%) at Day 57,patients with GAD [2]; [6],Quetiapine has a greater
same,Adverse events of nausea or vomiting,patients with GAD [2]; vs placebo,placebo levels of nausea and
same,Adverse events related to EPS (including akathisia); change in SAS and BARS scores at Day 57,patients with GAD [2]; vs placebo,placebo levels of EPS
same,HAM-A Remission (HAM-A total score = 7) at Day 57,patients with GAD [2]; vs placebo,Quetiapine is better than
same,Sexual dysfunction: change from randomization in CSFQ total score at Day 57,patients with GAD [2]; vs placebo,placebo levels of sexual
same,"Change from randomization in CGI-S score, CGI-I (much or very much improved), HAM-A psychic and somatic clusters at Day 57","patients with GAD [2]; vs placebo, across anxiety symptoms",Quetiapine is more effective
same,Change from randomization in the Hamilton Anxiety Scale (HAM-A) total score at Day 57,"patients with GAD [3]; claim to be addressed, primary outcome, vs placebo",more effective
same,Adverse events of nausea or vomiting,patients with GAD [3]; [7],lower levels of nausea and
same,Incidence of withdrawals due to adverse events,patients with GAD [3]; [7],Quetiapine has similar
same,Sexual dysfunction: change from randomization in CSFQ total score at Day 57,patients with GAD [3]; [7],lower levels of sexual
same,"Somnolence: severity of AEs, time of first instance, withdrawals due to AE of somnolence","patients with GAD [3]; hypothesis to be tested, compared to placebo","generally mild, occurs early in"
same,"Change from randomization in HAM-A total score, HAM-A psychic cluster, HAM-A somatic cluster and CGI-S score at Day 4","patients with GAD [3]; hypothesis to be tested, compared to placebo, Day 4",anti-anxiety effect by Day 4
same,Change from randomization in MADRS total score at Day 57,"patients with GAD [3]; hypothesis to be tested, depressive symptoms in GAD, vs placebo",Quetiapine is more effective
same,Adverse events related to discontinuation; change in Discontinuation-Emergent Signs and Symptoms total score at Day 64 and Day 71,"patients with GAD [3]; hypothesis to be tested, discontinuation symptoms",Quetiapine does not have
same,Change from normal to Clinically Important in Physical Examinations; Laboratory values; Vital signs; ECGs,"patients with GAD [3]; hypothesis to be tested, once daily up to 150 mg/day",150 mg/day is safe and well
same,Change from randomization in Q-les-Q Item 15 (Satisfaction with medication) at Day 57,"patients with GAD [3]; hypothesis to be tested, patient satisfaction, vs placebo",Quetiapine is more effective
same,Change from randomization in Q-les-Q total score and Q-les-Q Item 16 (Overall life satisfaction) at Day 57,"patients with GAD [3]; hypothesis to be tested, quality of life, vs placebo",Quetiapine is more effective
same,HAM-A Response (decrease from randomization total score of ≧50%) at Day 4,"patients with GAD [3]; hypothesis to be tested, response rate vs placebo, Day 4",Quetiapine has a greater
same,HAM-A Response (decrease from randomization total score of ≧50%) at Day 57,"patients with GAD [3]; hypothesis to be tested, response rate vs placebo, Day 57",Quetiapine has a greater
same,Change from randomization in PSQI score and MADRS sleep disturbance factor (Item 4) at Day 57,"patients with GAD [3]; hypothesis to be tested, sleep quality, vs placebo",Quetiapine is superior to
same,"Change from randomization in HAM-A total score, CGI Global Improvement, HAM-A psychic and somatic clusters at Day 57","patients with GAD [3]; hypothesis to be tested, versus paroxetine",Quetiapine is at least as
same,Adverse events of nausea or vomiting,patients with GAD [3]; [8],placebo levels of nausea and
same,Adverse events related to EPS (including akathisia); change in SAS and BARS scores at Day 57,patients with GAD [3]; [8],placebo levels of EPS
same,HAM-A Remission (HAM-A total score ≦7) at Day 57,patients with GAD [3]; [8],Quetiapine is better than
same,Sexual dysfunction: change from randomization in CSFQ total score at Day 57,patients with GAD [3]; [8],placebo levels of sexual
same,"Change from randomization in CGI-S score, CGI-I (much or very much improved), HAM-A psychic and somatic clusters at Day 57","patients with GAD [3]; hypothesis to be tested, vs placebo, across anxiety symptoms",Quetiapine is more effective
same,mean CGI-S score after 6 months,[4]; add-on to antidepressants,about 5
same,mean CGI-S score at baseline,[4]; add-on to antidepressants,about 6
same,mean HAM-D score after 6 months,[4]; [9],about 15
same,mean HAM-D score at baseline,[4]; [9],about 27
same,discontinuation of the study,[4]; in vivo,No patients discontinued the study
same,side effects reported,[4]; the only side effects reported,Sedation and drowsiness
same,mean HAM-D score at study end,"[5]; added to SSRI/SNRI, Week 8, placebo about 15",about 8
same,mean MADRS score at study end,"[5]; added to SSRI/SNRI, placebo about 24",about 15
same,mean weight gain,[5]; in vivo,about 6 kg
same,most common side effects,[5]; in vivo,"fatigue, dry mouth, and sedation/somnolence"
same,patients who withdrew from the study due to serious adverse events,[5]; in vivo,No patients
same,tolerability,[5]; in vivo,generally well-tolerated
same,final mean CGI-I score,[5]; placebo 3.5,2.5
same,final mean CGI-S score,[5]; placebo 3.8,2.8
same,patients who achieved remission (HAM-D score <7),[5]; placebo 15%,43%
same,patients who responded to treatment (≧50% reduction in HAM-D score),[5]; placebo 27%,67%
